Source: ChEMBL document CHEMBL1130138, “Design of low molecular weight hematoregulatory agents from the structure-activity relationship of a dimeric pentapeptide” (1997)

What was measured:
C6 [1] = experiment: HSF produced by bone marrow-derived stromal cell lines C6.4 on stimulation with the compound at (1000 ng/mL) was determined in vitro in an GM-CFC assay.; type: functional, Mus musculus
C6 [2] = experiment: Neutralization of colony - stimulating activity was determined by incubating supernatants from stromal cells stimulated by compound (1000 ng/mL) with an antibody raised against KC[38-72].; type: functional, Mus musculus
[3] = in the assay text read “100 ng/mL” for “1000 ng/mL”

Structure (SMILES)	HSF (C6 [1]) [units/mL]	further results
O=C(N[C@H](CO)C(=O)O)c1cccnc1C(=O)N[C@@H](CO)C(=O)O	0	
NCCCC[C@H](NC(=O)[C@H](CCCC[C@H](NC(=O)[C@H](CC(=O)O)NC(=O)[C@H](CO)NC(=O)c1ccc[nH]1)C(=O)N[C@@H](CCCCN)C(=O)O)NC(=O)[C@H](CC(=O)O)NC(=O)[C@H](CO)NC(=O)c1ccc[nH]1)C(=O)O	1e+06	
O=C(N[C@@H](CO)C(=O)O)c1cccnc1C(=O)N[C@H](CO)C(=O)O	1.2e+06	
O=C(N[C@H](CO)C(=O)O)c1nccnc1C(=O)N[C@H](CO)C(=O)O		HSF (C6 [2]; [3]): 0 units/mL
NCCCC[C@H](NC(=O)[C@H](CCCC[C@H](NC(=O)[C@H](CC(=O)O)NC(=O)[C@H](CO)NC(=O)c1cc2ccccc2[nH]1)C(=O)N[C@@H](CCCCN)C(=O)O)NC(=O)[C@H](CC(=O)O)NC(=O)[C@H](CO)NC(=O)c1cc2ccccc2[nH]1)C(=O)O	0	
NCCCC[C@H](NC(=O)[C@H](CCCC[C@H](NC(=O)[C@H](CC(=O)O)NC(=O)[C@H](CO)NC(=O)c1ncccc1O)C(=O)N[C@@H](CCCCN)C(=O)O)NC(=O)[C@H](CC(=O)O)NC(=O)[C@H](CO)NC(=O)c1ncccc1O)C(=O)O	2.8e+06	
NCCCC[C@H](NC(=O)[C@H](CCCC[C@H](NC(=O)[C@H](CC(=O)O)NC(=O)[C@H](CO)NC(=O)c1ccc2ccccc2n1)C(=O)N[C@@H](CCCCN)C(=O)O)NC(=O)[C@H](CC(=O)O)NC(=O)[C@H](CO)NC(=O)c1ccc2ccccc2n1)C(=O)O	0	
O=C(NC(CO)C(=O)O)c1nccnc1C(=O)N[C@@H](CO)C(=O)O (single isomer, unassigned)	0	
NCCCC[C@H](NC(=O)[C@H](CCCC[C@H](NC(=O)[C@H](CC(=O)O)NC(=O)[C@H](CO)NC(=O)c1cnccn1)C(=O)N[C@@H](CCCCN)C(=O)O)NC(=O)[C@H](CC(=O)O)NC(=O)[C@H](CO)NC(=O)c1cnccn1)C(=O)O	120000	
NCCCC[C@H](NC(=O)[C@H](CCCC[C@H](NC(=O)[C@H](CC(=O)O)NC(=O)[C@H](CO)NC(=O)c1nccc2ccccc12)C(=O)N[C@@H](CCCCN)C(=O)O)NC(=O)[C@H](CC(=O)O)NC(=O)[C@H](CO)NC(=O)c1nccc2ccccc12)C(=O)O	0	
O=C(N[C@@H](CO)C(=O)O)c1ccccc1C(=O)N[C@H](CO)C(=O)O	0	
CC(=O)Nc1cccc(C(=O)N[C@@H](CO)C(=O)N[C@@H](CC(=O)O)C(=O)N[C@@H](CCCC[C@H](NC(=O)[C@H](CC(=O)O)NC(=O)[C@H](CO)NC(=O)c2cccc(NC(C)=O)n2)C(=O)N[C@@H](CCCCN)C(=O)O)C(=O)N[C@@H](CCCCN)C(=O)O)n1	2.4e+06	
O=C(N[C@@H](CO)C(=O)O)c1nccnc1C(=O)N[C@H](CO)C(=O)O		HSF (C6 [2]; [3]): 0 units/mL
NCCCC[C@H](NC(=O)[C@H](CCCC[C@H](NC(=O)[C@H](CC(=O)O)NC(=O)[C@H](CCC(=O)O)NC(=O)[C@@H]1CCC(=O)N1)C(=O)N[C@@H](CCCCN)C(=O)O)NC(=O)[C@H](CC(=O)O)NC(=O)[C@H](CCC(=O)O)NC(=O)[C@@H]1CCC(=O)N1)C(=O)O [GLASPIMOD]		HSF (C6 [2]): 0 units/mL
